Measurements from patent US11279703B2, “Fused pyrimidine compounds as BRD4 and JAK2 dual inhibitors and methods for use thereof” (APTOSE BIOSCIENCES INC., priority 2016, dated 2022).

Legend:
[1] = molecular target: BRD4-BD1 (Homo sapiens (Human), UniProt O60885); experiment: AlphaLisa bromodomain binding assay, BRD4-BD1; conditions: Table 6; read-out: BRD4(1) IC50
[2] = molecular target: BRD3-BD1 (Homo sapiens (Human), UniProt Q15059); experiment: AlphaLisa bromodomain binding assay, BRD3-BD1; conditions: Table 6; read-out: BRD3(1) IC50
Chain of BRD3-BD1 (Q15059 34-140): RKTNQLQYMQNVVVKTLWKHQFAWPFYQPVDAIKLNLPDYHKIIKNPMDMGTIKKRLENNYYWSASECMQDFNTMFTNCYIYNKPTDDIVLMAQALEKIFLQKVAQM
Description: (§1) An AlphaLisa assay was used to observe bromodomain binding and measure IC50s for the compounds disclosed herein. An AlphaLisa assay is a bead-based assay used to detect interactions between bromodomains and polyacetylated histone peptides. Donor and acceptor beads bound to target and ligand are brought into proximity by this protein-protein interaction.
(§2) Equipment Required • 1. […] Plate centrifuge • 3. Plate shaker • 4. […] Single channel and multi-channel pipettes • 6. Microplate reader (Pherastar)
(§3) Stock and Final Assay Concentrations (FAC) • 1. All reference and test compounds are made at a concentration of 10 mM in DMSO. Compounds are serially diluted in DMSO and a FAC starting from 10 μM to 10 point 3 fold serial dilutions is arrived. FAC of DMSO is 1%. • 2. Enzyme stock and FAC
(§4) Biotinylated substrate (Acetylated histone H4, biotinylated substrate—cat no. AS64989-025, Anaspec) stock and FAC
(§5) • 4. Acceptor and donor beads stock and FAC
(§6) Buffers • For the enzyme and substrate dilution following buffer is used (for 50 ml) • HEPES: 50 mM 2.5 ml • NaCl: 25 mM 1.25 ml • DTT: 10 mM 0.05 ml • BSA: 0.1% 0.05 g • MilliQ water: 45.7 ml • For dilution of acceptor and donor beads AlphaLISA 5× epigenetics Buffer Perkin Elmer (Cat: AL008C) is used at 1× concentration.
(§7) Procedure • 1. […] Tap the plate gently • 3. […] Cover with plate sealer • 5. […] Incubate the plate at room temperature for 10 minutes • 7. Add 10 μl of the substrate • 8. Cover with plate sealer • 9. […] Cover with plate sealer • 14. […] Cover with plate sealer • 18.
(§8) The percent inhibition is calculated in the excel analysis template and the IC50 values are subsequently determined using a sigmoidal dose-response curve (variable slope) using GraphPad Prism® 5 software.

[3] = molecular target: BRDT-BD1 (Homo sapiens (Human), UniProt Q58F21); experiment: AlphaLisa bromodomain binding assay, BRDT-BD1; conditions: Table 6; read-out: BRDT(1) IC50
Description: as §1, §2, §3, §4, §5, §6, §7, §8

[4] = molecular target: BRD2-BD1 (Homo sapiens (Human), UniProt P25440); experiment: AlphaLisa bromodomain binding assay, BRD2-BD1; conditions: Table 6; read-out: BRD2(1) IC50
Chain of BRD2-BD1 (P25440 74-180): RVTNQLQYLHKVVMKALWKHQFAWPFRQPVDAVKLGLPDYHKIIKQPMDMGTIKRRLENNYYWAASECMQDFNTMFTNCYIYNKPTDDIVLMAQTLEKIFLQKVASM
Description: as §1, §2, §3, §4, §5, §6, §7, §8

[5] = molecular target: BRD4-BD2 (Homo sapiens (Human), UniProt O60885); experiment: AlphaLisa bromodomain binding assay, BRD4-BD2; conditions: Table 6; read-out: BRD4(2) IC50
Description: as §1, §2, §3, §4, §5, §6, §7, §8

[6] = molecular target: JAK2 (Homo sapiens (Human), UniProt O60674); experiment: HTRF kinase assay, JAK2; assay type: biochemical; conditions: Table 6
Chain of JAK2 (O60674 whole entry): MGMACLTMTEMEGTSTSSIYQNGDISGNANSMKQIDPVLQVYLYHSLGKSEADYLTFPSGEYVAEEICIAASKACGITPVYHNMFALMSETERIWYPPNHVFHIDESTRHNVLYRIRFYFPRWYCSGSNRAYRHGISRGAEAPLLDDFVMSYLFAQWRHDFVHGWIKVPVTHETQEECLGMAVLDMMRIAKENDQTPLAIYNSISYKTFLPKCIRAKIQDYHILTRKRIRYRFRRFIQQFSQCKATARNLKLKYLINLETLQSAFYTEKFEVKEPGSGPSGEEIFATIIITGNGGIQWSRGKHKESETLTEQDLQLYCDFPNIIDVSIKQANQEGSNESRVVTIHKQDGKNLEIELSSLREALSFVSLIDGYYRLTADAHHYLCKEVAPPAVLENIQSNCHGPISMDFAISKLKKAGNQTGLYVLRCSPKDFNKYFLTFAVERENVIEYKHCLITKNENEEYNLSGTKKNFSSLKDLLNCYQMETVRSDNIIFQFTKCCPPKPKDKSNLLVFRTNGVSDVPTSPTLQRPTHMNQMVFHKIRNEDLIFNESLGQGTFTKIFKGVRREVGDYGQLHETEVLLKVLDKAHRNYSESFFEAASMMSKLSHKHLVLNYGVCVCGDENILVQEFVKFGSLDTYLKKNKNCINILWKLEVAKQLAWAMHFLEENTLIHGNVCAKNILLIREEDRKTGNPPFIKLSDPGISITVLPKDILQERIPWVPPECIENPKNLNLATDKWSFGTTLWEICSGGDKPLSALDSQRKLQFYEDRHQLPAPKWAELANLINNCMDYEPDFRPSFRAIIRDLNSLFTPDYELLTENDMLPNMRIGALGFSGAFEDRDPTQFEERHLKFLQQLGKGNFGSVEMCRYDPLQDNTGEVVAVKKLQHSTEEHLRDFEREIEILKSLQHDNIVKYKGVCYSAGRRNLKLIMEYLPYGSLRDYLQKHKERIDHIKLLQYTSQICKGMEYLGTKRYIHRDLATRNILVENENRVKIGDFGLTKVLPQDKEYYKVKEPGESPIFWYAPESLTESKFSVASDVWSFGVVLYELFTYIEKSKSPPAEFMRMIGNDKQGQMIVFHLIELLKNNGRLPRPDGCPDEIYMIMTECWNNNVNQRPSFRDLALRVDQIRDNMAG

Row | SMILES | IC50 [1] | IC50 [2] | IC50 [3] | IC50 [4] | IC50 [5] | IC50 [6]
1 | Cc1ccc(Nc2nc(Nc3ccc(N4CCN(C)CC4)cc3)nc3ccccc23)cc1NS(=O)(=O)C(C)(C)C | 470 nM | 3200 nM | 1800 nM | 636 nM | 1130 nM | 
2 | COc1cc(Nc2nc(Nc3ccc(N4CCN(C)CC4)cc3)nc3ccccc23)ccc1Cl | 6300 nM | 8400 nM |  | 790 nM | 5300 nM | 
3 | CC(C)(C)S(=O)(=O)Nc1cccc(Nc2nc(NC3CCNCC3)nc3sccc23)c1 [drawing 203] | 94 nM | 248 nM |  | 458 nM | 309 nM | 
4 | CN1CCC(Nc2nc(Nc3ccc4c(c3)N(S(=O)(=O)C(C)(C)C)CC4)c3ccsc3n2)CC1 [drawing 204] | 160 nM | 331 nM |  | 776 nM | 293 nM | 
5 | Cc1cnc(Nc2ccc(N3CCN(C)CC3)cc2)nc1Nc1cccc(NS(=O)(=O)C(C)(C)C)c1 [drawing 205] | 210 nM | 213 nM |  | 373 nM | 13 nM | 10 nM
6 | CN1CCN(c2ccc(Nc3nc4c(c(Nc5cccc(NS(=O)(=O)C(C)(C)C)c5)n3)COC4)cc2)CC1 [drawing 206] |  | 2470 nM |  | 1770 nM | 1000 nM | 
7 | Cc1cnc(Nc2ccc(N3CCN(C)CC3)cc2)nc1Nc1cccc(NS(=O)(=O)C(C)(C)C)c1 [drawing 292] | 280 nM |  |  |  |  | 9 nM
8 | Cc1cnc(Nc2ccc(N3CCN(C)CC3)cc2)nc1Nc1cccc(NS(=O)(=O)C(C)(C)C)c1 [drawing 321] | 166 nM |  |  |  |  | 13 nM
9 | CN1CCC(NC(=O)c2ccc(Nc3ncc4ccn(-c5ccc(F)c(NS(=O)(=O)C(C)(C)C)c5)c4n3)cc2F)CC1 [drawing 335] | 94 nM |  |  |  |  | 360000 nM
10 | Cc1cnc(Nc2ccc(N3CCN(C)CC3)cc2)nc1Nc1cccc(NS(=O)(=O)C(C)(C)C)c1 [drawing 339] | 235 nM |  |  |  |  | 43 nM
11 | Cc1cnc(Nc2ccc(N3CCN(C)CC3)cc2)nc1Nc1cccc(NS(=O)(=O)C(C)(C)C)c1 [drawing 353] | 278 nM |  |  |  |  | 6.6 nM
12 | CN1CCC(NC(=O)c2ccc(Nc3ncc4ccn(-c5ccc(F)c(NS(=O)(=O)C(C)(C)C)c5)c4n3)cc2F)CC1 [drawing 363] | 134 nM |  |  |  |  | 130 nM
13 | CN(C)C1CCN(c2ccc(Nc3ncc4ccn(-c5ccc(F)c(NS(=O)(=O)C(C)(C)C)c5)c4n3)cc2F)CC1 [drawing 373] | 153 nM |  |  |  |  | 27 nM
14 | Cc1cnc(Nc2ccc(N3CCN(C)CC3)cc2)nc1Nc1cccc(NS(=O)(=O)C(C)(C)C)c1 [drawing 375] | 316 nM |  |  |  |  | 9.3 nM
15 | Cc1cnc(Nc2ccc(N3CCN(C)CC3)cc2)nc1Nc1cccc(NS(=O)(=O)C(C)(C)C)c1 [drawing 384] | 138 nM |  |  |  |  | 10 nM
16 | Cc1cnc(Nc2ccc(N3CCN(C)CC3)cc2)nc1Nc1cccc(NS(=O)(=O)C(C)(C)C)c1 [drawing 391] | 141 nM |  |  |  |  | 6 nM
17 | Cc1cnc(Nc2ccc(N3CCN(C)CC3)cc2)nc1Nc1cccc(NS(=O)(=O)C(C)(C)C)c1 [drawing 396] | 155 nM |  |  |  |  | 7 nM
18 | CN(C)C1CCN(c2ccc(Nc3ncc4ccn(-c5ccc(F)c(NS(=O)(=O)C(C)(C)C)c5)c4n3)cc2F)CC1 [drawing 397] | 63 nM |  |  |  |  | 27 nM
19 | Cc1cnc(Nc2ccc(N3CCN(C)CC3)cc2)nc1Nc1cccc(NS(=O)(=O)C(C)(C)C)c1 [drawing 405] | 208 nM |  |  |  |  | 14 nM
20 | CC(C)(C)S(=O)(=O)Nc1cccc(Nc2nc(NC3CCNCC3)nc3sccc23)c1 [drawing 406] | 1200 nM |  |  |  |  | 10000 nM
21 | CN1CCC(Nc2nc(Nc3ccc4c(c3)N(S(=O)(=O)C(C)(C)C)CC4)c3ccsc3n2)CC1 [drawing 407] | 315 nM |  |  |  |  | 10000 nM
22 | CN(C)C1CCN(c2ccc(Nc3ncc4ccn(-c5ccc(F)c(NS(=O)(=O)C(C)(C)C)c5)c4n3)cc2F)CC1 [drawing 408] | 63 nM |  |  |  |  | 43 nM
23 | CN(C)C1CCN2c3ccc(Nc4ncc5ccn(-c6cccc(NS(=O)(=O)C(C)(C)C)c6)c5n4)cc3CC2C1 (centres unmarked) [drawing 444] | 268 nM |  |  |  |  | 8 nM
24 | CN(C)C1CCN2c3ccc(Nc4ncc5ccn(-c6cccc(NS(=O)(=O)C(C)(C)C)c6)c5n4)cc3CC2C1 (centres unmarked) [drawing 445] | 105 nM |  |  |  |  | 12 nM
25 | CNC1CCN(c2ccc(Nc3ncc4scc(-c5ccc(F)c(NS(=O)(=O)C(C)(C)C)c5)c4n3)cc2F)CC1 [drawing 459] | 308 nM |  |  |  |  | 21 nM
26 | CNCCOc1ccc(Nc2ncc3ccn(-c4cccc(NS(=O)(=O)C(C)(C)C)c4)c3n2)cc1F [drawing 460] | 2300 nM |  |  |  |  | 50 nM
27 | CNCCOc1ccc(Nc2ncc3ccn(-c4cccc(NS(=O)(=O)C(C)(C)C)c4)c3n2)cc1F [drawing 467] | 1300 nM |  |  |  |  | 79 nM

Continued, values first:

Row | IC50 [1] | IC50 [2] | IC50 [3] | IC50 [4] | IC50 [5] | IC50 [6] | SMILES
28 | 2330 nM |  |  |  |  | 3 nM | Cc1noc(C)c1-c1cccc(-n2ccc3cnc(Nc4ccc(N5CCN(C)CC5)cc4)nc32)c1 [drawing 285]
29 | 10000 nM |  |  |  |  | 3 nM | CN1CCN(c2ccc(Nc3ncc4ccn(-c5cccc(NS(=O)(=O)c6ccccc6)c5)c4n3)cc2)CC1 [drawing 287]
30 | 394 nM |  |  |  |  | 10 nM | CC(C)(C)S(=O)(=O)Nc1cccc(-n2ccc3cnc(Nc4ccc(N5CCNCC5)cc4)nc32)c1 [drawing 306]
31 | 1350 nM |  |  |  |  | 5 nM | O=S(=O)(Nc1cccc(-n2ccc3cnc(Nc4ccc(N5CCNCC5)cc4)nc32)c1)C1CC1 [drawing 307]
32 | 451 nM |  |  |  |  | 6 nM | O=S(=O)(Nc1cccc(-n2ccc3cnc(Nc4ccc(N5CCNCC5)cc4)nc32)c1)C1CC1 [drawing 320]
33 | 228 nM |  |  |  |  | 188 nM | CN1CCN(c2ccc(Nc3ncc4ccn(-c5ccc(F)c(NS(=O)(=O)C(C)(C)C)c5)c4n3)cc2)CC1 [drawing 340]
34 | 1800 nM |  |  |  |  | 8 nM | CN1CCN(c2ccc(Nc3ncc4ccn(-c5cccc(NS(=O)(=O)C6CC6)c5)c4n3)cc2)CC1 [drawing 356]
35 | 10000 nM |  |  |  |  | 0.7 nM | CN1CCN(c2ccc(Nc3ncc4ccn(-c5ccc(NS(=O)(=O)C(C)(C)C)cc5)c4n3)cc2)CC1 [drawing 362]
36 | 190 nM |  |  |  |  | 5 nM | CN(C)C1CCN(c2ccc(Nc3ncc4ccn(-c5cccc(NS(=O)(=O)C(C)(C)C)c5)c4n3)cc2)CC1 [drawing 368]
37 | 131 nM |  |  |  |  | 3 nM | CN(C)C1CCN(c2ccc(Nc3ncc4ccn(-c5cccc(NS(=O)(=O)C(C)(C)C)c5)c4n3)cc2F)CC1 [drawing 371]
38 | 10000 nM |  |  |  |  | 0.18 nM | CN1CCN(c2ccc(Nc3ncc4ccn(-c5ccc(CNS(=O)(=O)C(C)(C)C)cc5)c4n3)cc2)CC1 [drawing 378]
39 | 131 nM |  |  |  |  | 3 nM | CN(C)C1CCN(c2ccc(Nc3ncc4ccn(-c5cccc(NS(=O)(=O)C(C)(C)C)c5)c4n3)cc2F)CC1 [drawing 385]
40 | 10000 nM |  |  |  |  | 0.6 nM | CN1CCN(c2ccc(Nc3ncc4ccn(-c5ccc6c(c5)CCN6S(=O)(=O)C(C)(C)C)c4n3)cc2)CC1 [drawing 398]
41 | 377 nM |  |  |  |  | 4.4 nM | CN(C)C1CCN(c2ccc(Nc3ncc4ccn(-c5cccc(NS(=O)(=O)C(C)(C)C)c5)c4n3)cc2F)CC1 [drawing 401]
42 | 393 nM |  |  |  |  | 18 nM | CC(C)(C)S(=O)(=O)Nc1cccc(-n2ccc3cnc(Nc4ccc5c(c4)CC4CNCCN54)nc32)c1 (centres unmarked) [drawing 404]
43 | 229 nM |  |  |  |  | 6.5 nM | CN(C)C1CCN(c2ccc(Nc3ncc4ccn(-c5cccc(NS(=O)(=O)C(C)(C)C)c5)c4n3)cc2)CC1 [drawing 409]
44 | 306 nM |  |  |  |  | 13 nM | CC(C)(C)S(=O)(=O)Nc1cccc(-n2ccc3cnc(Nc4ccc5c(c4)CC4CNCCN54)nc32)c1 (centres unmarked) [drawing 411]
45 | 125 nM |  |  |  |  | 76 nM | CC(C)(C)S(=O)(=O)Nc1cc(-n2ccc3cnc(Nc4ccc(N5CCNCC5)c(F)c4)nc32)ccc1F [drawing 430]
46 | 248 nM |  |  |  |  | 9.6 nM | CC(C)(C)S(=O)(=O)Nc1cccc(-n2ccc3cnc(Nc4ccc(N5CCNCC5)c(F)c4)nc32)c1 [drawing 431]
47 | 174 nM |  |  |  |  | 8 nM | CC(C)(C)S(=O)(=O)Nc1cccc(-n2ccc3cnc(Nc4ccc(N5CCNCC5)c(F)c4)nc32)c1 [drawing 432]
